Measurements as given in USRE45313E1, “Exendin variant peptides” (priority 1999, dated 2014).

Tests used:
[1] = molecular target: T1, leucine aminopeptidase (Sus scrofa, UniProt P28839); test: In vitro stability in leucine aminopeptidase solution; details: pH 7.4; for half-life at 0.1 mg/ml: isolated enzyme aminopeptidase
T1 sequence (P28839 1-519): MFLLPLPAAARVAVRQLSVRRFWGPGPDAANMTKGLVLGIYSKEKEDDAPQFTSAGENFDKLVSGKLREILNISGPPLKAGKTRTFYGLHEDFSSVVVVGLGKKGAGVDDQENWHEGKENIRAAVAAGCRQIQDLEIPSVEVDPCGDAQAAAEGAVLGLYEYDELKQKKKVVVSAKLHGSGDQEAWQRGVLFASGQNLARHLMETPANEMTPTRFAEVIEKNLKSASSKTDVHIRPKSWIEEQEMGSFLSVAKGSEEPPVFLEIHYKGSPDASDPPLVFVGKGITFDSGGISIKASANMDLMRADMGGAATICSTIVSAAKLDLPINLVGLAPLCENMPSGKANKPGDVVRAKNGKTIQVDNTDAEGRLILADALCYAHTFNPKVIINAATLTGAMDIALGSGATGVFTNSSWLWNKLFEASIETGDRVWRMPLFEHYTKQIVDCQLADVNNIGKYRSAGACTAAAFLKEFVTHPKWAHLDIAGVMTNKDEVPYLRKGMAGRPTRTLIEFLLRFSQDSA
Procedure: (§1) A SHT200D block heater from Stuart Scientific was used for heating of the peptide/enzyme solutions during the stability experiments. The degradation of the test compounds was studied at 37° C. in 50 mM phosphate buffer solutions of pH 7.4 containing leucine aminopeptidase (25 U/ml) or carboxypeptidase A (1 U/ml) or 100 mM ammoniumbicarbonate buffer of pH 8.0 containing dipeptidyl aminopeptidase IV (0.5 U/ml). Experiments were initiated by addition of an aliquot (100 μl) of a stock solution (1 mg/ml) of the peptide in water to 900 μl preheated enzyme solution in an Eppendorf microvial giving an initial concentration of 0.1 mg/ml (˜1.7·10−5-1.8·10−5 M) of the peptide. The peptide/enzyme solution was kept at 37° C. and at appropriate time intervals samples of 100 μl were withdrawn from the peptide/enzyme solution and mixed thoroughly with 20 μl 25% TFA in acetonitrile in order to stop the enzymatic degradation process. The inactivated samples were transferred to autosampler vials and analysed for content of intact test compound by HPLC as described below.
(§2) Samples from the stability experiments performed as described above were analysed by gradient HPLC analysis using the instrumentation described above and the following experimental conditions.
(§3) In vitro stability studies with the present peptides and peptide conjugates in the presence of selected proteolytic enzymes are applied as a tool for evaluating the protection of said peptides against proteolysis in vivo.
(§4) Water used was of highest quality obtained from a Milli-Q water treatment system (Millipore, Bedford, Mass., U.S.A.). Acetonitrile (ACN) was of super gradient quality obtained from Labscan Ltd. (Dublin, Ireland). […] Leucine aminopeptidase (EC 3.4.11.1), Carboxypeptidase A (EC 3.4.17.1) and Dipeptidyl peptidase (Dipeptidyl aminopeptidase IV, EC 3.4.14.5) were all obtained from Sigma (St. Louis, Mo., U.S.A.). Gradient HPLC analysis was done using a Hewlett Packard HP 1100 HPLC system consisting of a HP 1100 Binary Pump, a HP 1100 Autosampler, A HP 1100 Column Thermostat and a HP 1100 Variable Wavelength Detector. Hewlett Packard Chem-station for LC software (Rev. A.06.01) was used for instrument control and data acquisition. A Vydac 238TP54 (150×4.6 mm I.D.) column packed with 5 μm, C18, 300 Å

[2] = molecular target: T2, carboxypeptidase A (Bos taurus, UniProt P00730); test: In vitro stability in carboxypeptidase A solution; details: pH 7.4; for half-life at 0.1 mg/ml: isolated enzyme carboxypeptidase
T2 sequence (P00730 111-419): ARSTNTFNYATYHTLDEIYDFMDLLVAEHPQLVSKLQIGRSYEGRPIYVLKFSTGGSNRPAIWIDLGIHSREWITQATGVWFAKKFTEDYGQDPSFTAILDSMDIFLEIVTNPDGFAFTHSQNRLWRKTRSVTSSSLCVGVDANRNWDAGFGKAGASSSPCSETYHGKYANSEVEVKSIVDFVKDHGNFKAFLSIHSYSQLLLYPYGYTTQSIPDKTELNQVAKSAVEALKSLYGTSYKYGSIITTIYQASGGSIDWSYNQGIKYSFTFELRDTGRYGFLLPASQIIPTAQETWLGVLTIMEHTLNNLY
Procedure: as §1, §2, §3, §4

[3] = molecular target: dipeptidyl aminopeptidase IV (Sus scrofa, UniProt P22411); test: In vitro stability in dipeptidyl aminopeptidase IV solution; details: pH 8; for half-life at 0.1 mg/ml: isolated enzyme dpp iv
dipeptidyl aminopeptidase IV, sequence (P22411 whole entry): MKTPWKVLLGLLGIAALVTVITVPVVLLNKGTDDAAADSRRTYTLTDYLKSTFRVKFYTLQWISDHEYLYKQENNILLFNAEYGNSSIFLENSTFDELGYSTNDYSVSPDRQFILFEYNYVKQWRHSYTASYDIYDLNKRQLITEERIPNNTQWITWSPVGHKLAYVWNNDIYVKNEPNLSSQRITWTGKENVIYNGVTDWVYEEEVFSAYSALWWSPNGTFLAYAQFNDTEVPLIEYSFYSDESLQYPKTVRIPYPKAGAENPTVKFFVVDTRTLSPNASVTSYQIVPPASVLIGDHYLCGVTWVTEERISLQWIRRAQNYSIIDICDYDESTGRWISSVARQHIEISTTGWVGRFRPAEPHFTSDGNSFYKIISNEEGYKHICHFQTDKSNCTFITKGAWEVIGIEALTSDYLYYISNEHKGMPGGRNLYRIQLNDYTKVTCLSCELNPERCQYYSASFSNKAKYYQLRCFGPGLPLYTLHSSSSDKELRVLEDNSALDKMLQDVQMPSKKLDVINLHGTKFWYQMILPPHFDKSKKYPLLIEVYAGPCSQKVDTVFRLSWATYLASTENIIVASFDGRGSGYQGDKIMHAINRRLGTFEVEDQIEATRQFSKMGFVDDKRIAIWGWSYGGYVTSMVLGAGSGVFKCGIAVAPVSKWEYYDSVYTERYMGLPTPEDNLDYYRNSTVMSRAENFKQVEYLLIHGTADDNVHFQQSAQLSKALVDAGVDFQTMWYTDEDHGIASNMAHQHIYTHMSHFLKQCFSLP
Procedure: as §1, §2, §3, §4

SMILES | half-life at 0.1 mg/ml [1] | half-life at 0.1 mg/ml [2] | half-life at 0.1 mg/ml [3] | half-life [1] | half-life [2] | half-life [3]
CC[C@H](C)[C@H](NC(=O)[C@H](Cc1ccccc1)NC(=O)[C@H](CCC(=O)O)NC(=O)[C@H](CCCCN)NC(=O)[C@H](C)NC(=O)[C@H](C)NC(=O)[C@H](CCC(N)=O)NC(=O)CNC(=O)[C@H](CCC(=O)O)NC(=O)[C@H](CC(C)C)NC(=O)[C@H](Cc1ccc(O)cc1)NC(=O)[C@H](CO)NC(=O)[C@H](CO)NC(=O)[C@@H](NC(=O)[C@H](CC(=O)O)NC(=O)[C@H](CO)NC(=O)[C@@H](NC(=O)[C@H](Cc1ccccc1)NC(=O)[C@@H](NC(=O)CNC(=O)[C@H](CCC(=O)O)NC(=O)CNC(=O)[C@@H](N)Cc1c[nH]cn1)[C@@H](C)O)[C@@H](C)O)C(C)C)C(=O)N[C@@H](C)C(=O)N[C@@H](Cc1c[nH]c2ccccc12)C(=O)N[C@@H](CC(C)C)C(=O)N[C@H](C(=O)N[C@@H](CCCCN)C(=O)NCC(=O)N[C@@H](CCCNC(=N)N)C(=O)N[C@@H](CCCCN)C(=O)N[C@@H](CCCCN)C(=O)N[C@@H](CCCCN)C(=O)N[C@@H](CCCCN)C(=O)N[C@@H](CCCCN)C(=O)N[C@@H](CCCCN)C(N)=O)C(C)C [Compound 4] | ~36 h | 2.42 h | 4.87 h | – | – | –
CCCCCCCCCCCCCCCC(=O)NCCCC[C@H](NC(=O)[C@H](CCCNC(=N)N)NC(=O)CNC(=O)[C@H](CCCCN)NC(=O)[C@@H](NC(=O)[C@H](CC(C)C)NC(=O)[C@H](Cc1c[nH]c2ccccc12)NC(=O)[C@H](C)NC(=O)[C@@H](NC(=O)[C@H](Cc1ccccc1)NC(=O)[C@H](CCC(=O)O)NC(=O)[C@H](CCCCN)NC(=O)[C@H](C)NC(=O)[C@H](C)NC(=O)[C@H](CCC(N)=O)NC(=O)CNC(=O)[C@H](CCC(=O)O)NC(=O)[C@H](CC(C)C)NC(=O)[C@H](Cc1ccc(O)cc1)NC(=O)[C@H](CO)NC(=O)[C@H](CO)NC(=O)[C@@H](NC(=O)[C@H](CC(=O)O)NC(=O)[C@H](CO)NC(=O)[C@@H](NC(=O)[C@H](Cc1ccccc1)NC(=O)[C@@H](NC(=O)CNC(=O)[C@H](CCC(=O)O)NC(=O)CNC(=O)[C@@H](N)Cc1c[nH]cn1)[C@@H](C)O)[C@@H](C)O)C(C)C)[C@@H](C)CC)C(C)C)C(=O)N[C@@H](CCCCN)C(=O)N[C@@H](CCCCN)C(=O)N[C@@H](CCCCN)C(=O)N[C@@H](CCCCN)C(=O)N[C@@H](CCCCN)C(=O)N[C@@H](CCCCN)C(N)=O [Compound 5] | – | – | – | > 72 h | > 48 h | 7.33 h
CC[C@H](C)[C@H](NC(=O)[C@H](Cc1ccccc1)NC(=O)[C@H](CCC(=O)O)NC(=O)[C@H](CCCCN)NC(=O)[C@H](C)NC(=O)[C@H](C)NC(=O)[C@H](CCC(N)=O)NC(=O)CNC(=O)[C@H](CCC(=O)O)NC(=O)[C@H](CC(C)C)NC(=O)[C@H](Cc1ccc(O)cc1)NC(=O)[C@H](CO)NC(=O)[C@H](CO)NC(=O)[C@@H](NC(=O)[C@H](CC(=O)O)NC(=O)[C@H](CO)NC(=O)[C@@H](NC(=O)[C@H](Cc1ccccc1)NC(=O)[C@@H](NC(=O)CNC(=O)[C@H](CCC(=O)O)NC(=O)CNC(=O)[C@@H](N)Cc1cnc[nH]1)[C@@H](C)O)[C@@H](C)O)C(C)C)C(=O)N[C@@H](C)C(=O)N[C@@H](Cc1c[nH]c2ccccc12)C(=O)N[C@@H](CC(C)C)C(=O)N[C@H](C(=O)N[C@@H](CCCCN)C(=O)NCC(=O)N[C@@H](CCCNC(=N)N)C(N)=O)C(C)C [Compound (iii), reference compound] | 11.6 h | 2.12 h | 0.933 h | – | – | –
